Consider one compound from patent US20220062383A1, “REGULATION OF A FOREIGN BODY RESPONSE” (THE JOHNS HOPKINS UNIVERSITY, priority 2019, published 2022).

Molecules are shown by their SMILES.

Assay [1] concerns foreign body response to PCL implants (volumetric muscle loss model). Put plainly: qRT-PCR gene expression in tissue of PCL-implanted mice after IL17A/F NAb and/or senolytic treatment. Format: in vivo, C57BL/6 mice. The conditions noted are these: PCL implant. The procedure: All animal procedures were performed in accordance with an approved JHU IACUC protocol. Female mice were aged six to eight weeks-old. Several strains were utilized, including wild type C57BL/6j (Jackson Laboratories, Stock #00064), Rag2/OT-II (Taconic Stock #11490), IL17A-/- and IL17RA-/- (courtesy of Dr. Yoichiro Iwakura, University of Tokyo, Tokyo, Japan and Dr. Tomas Mustelin, Amgen, Seattle, respectively). Defects in muscle for material implantation were created as previously described (68). The resulting bilateral muscle defects were filled with 30 mg of a synthetic material. Synthetic materials tested include PCL (particulate, Mn=50000 g/mol, mean particle size<600 μm, Polysciences), ultrahigh molecular weight PE (particulate, Mn=5000 k g/mol, mean particle size=150 μm, Goodfellow), medical graded Silicone (sheet, Summit Medical), PEG hydrogels. PEG hydrogels were made with polyethylene glycol-diacrylate (PEG-DA, Mn=3400). PEG-DA (Polysciences) in PBS at 10% w/v concentration was mixed with photoinitiator (Irgacure 2959 solubilized to 10% w/v in 70% ethanol) to a final concentration of 0.05%. A 50 μL volume solution was cast onto each well of a flat bottom 96 wells plate. The solution was photocrosslinked via UV light for 30 mins to form a hydrogel sheet. Both silicone and PEG hydrogels were morselized into particles with a scalpel and placed into the defect. Control implants were injected with 50 μL of PBS (as a no implant control). All materials were UV sterilized prior to use. Directly after surgery, mice were given subcutaneous carprofen (Rimadyl®, Zoetis) at 5 mg/kg for pain relief. Mice were euthanized, and their implants were extracted at different time points: 1, 3, 6, or 12-weeks post-surgery. Additional modes of implantation were subcutaneous and intra-muscular injection. Briefly, synthetic materials were implanted subcutaneously (30 mg) on both flanks of the mice, or injected directly into the quadricep muscles through a 16 G syringe (5 mg of materials). Total RNA was isolated from whole tissue using TRIzol reagent and Qiagen's RNeasy kits. qRT-PCR was performed using Power SYBR Green Master Mix (Applied Biosystems) or TaqMan Gene Expression Master Mix (Applied Biosystems) according to manufacturer's instructions. Briefly, 2 μg of total RNA was used to synthesize cDNA using Superscript IV VILO Master Mix (ThermoFisher Scientific). The cDNA concentration was set to 50 ng/well (in a total volume of 20 μL PCR reaction). The qRT-PCR reactions were performed on the StepOne Plus Real-Time PCR System (ThermoFisher Scientific) using manufacturer recommended settings for quantitative and relative expression. Mice received 100 μl intraperitoneal (IP) injections of anti-IL17A (100 μg/ml, Cat #P13705.15) and anti-IL17F (100 μg/ml, Cat #P56220.17) (provided by Amgen) or isotype control (rat IgG2a, ThermoFisher Scientific, Cat #02-9688) every other day for a week. IL6 blocking antibody was administrated at 100 μg/ml (BioXCell, clone MP5-20F3) per mouse per day for 5 consecutive days. For senolytic treatment, mice received IP and intramuscular (IM) injections of Navitoclax (100 mg/kg, Selleckchem, Cat #HY-10087) for 5 consecutive days or vehicle control (5% DMSO, 3% Tween 80 in PBS). Co-administration of anti-I[…] and senolytic treatment were also evaluated. All mice received treatments at 4-weeks post-surgery for a total of 5 injections (1 injection per day per mouse), and were harvested in the following 2 weeks. The nCounter differential gene expression system was used to assess readable transcripts via the nanoString PanCancer Immune Profiling Panel. We utilized the nSolver software (version 3.0, nanoString Technologies, Inc.). All analyses of qRT-PCR data utilized the Livak Method, wherein ΔΔCt values are calculated, and then reported as relative quantification values calculated by […] (69). Treatment data points are normalized to either healthy or saline treated controls. β2M was utilized as the reference gene. […]

For assay [2], the system named is fibrosis around PCL implants (volumetric muscle loss model). Description: Histology and immunofluorescence (αSMA, picrosirius red) of fibrosis around PCL implants after treatment. Format: in vivo, C57BL/6 mice. The conditions noted are these: PCL implant; treatment 4 weeks after implantation; tissue at 6 weeks; vs isotype or vehicle control. As for the experimental part:
All animal procedures were performed in accordance with an approved JHU IACUC protocol. Female mice were aged six to eight weeks-old. Several strains were utilized, including wild type C57BL/6j (Jackson Laboratories, Stock #00064), Rag2/OT-II (Taconic Stock #11490), IL17A-/- and IL17RA-/- (courtesy of Dr. Yoichiro Iwakura, University of Tokyo, Tokyo, Japan and Dr. Tomas Mustelin, Amgen, Seattle, respectively). Defects in muscle for material implantation were created as previously described (68). The resulting bilateral muscle defects were filled with 30 mg of a synthetic material. Synthetic materials tested include PCL (particulate, Mn=50000 g/mol, mean particle size<600 μm, Polysciences), ultrahigh molecular weight PE (particulate, Mn=5000 k g/mol, mean particle size=150 μm, Goodfellow), medical graded Silicone (sheet, Summit Medical), PEG hydrogels. PEG hydrogels were made with polyethylene glycol-diacrylate (PEG-DA, Mn=3400). PEG-DA (Polysciences) in PBS at 10% w/v concentration was mixed with photoinitiator (Irgacure 2959 solubilized to 10% w/v in 70% ethanol) to a final concentration of 0.05%. A 50 μL volume solution was cast onto each well of a flat bottom 96 wells plate. The solution was photocrosslinked via UV light for 30 mins to form a hydrogel sheet. […] Co-administration of anti-I[…] and senolytic treatment were also evaluated. […]

The mark [3] stands for this setting: treatment 4 weeks after implantation, tissue at 6 weeks.
The mark [4] stands for this setting: treatment at 4 weeks, 6 weeks after implantation.

In the case of `CC1(C)CCC(c2ccc(Cl)cc2)=C(CN2CCN(c3ccc(C(=O)NS(=O)(=O)c4ccc(N[C@H](CCN5CCOCC5)CSc5ccccc5)c(S(=O)(=O)C(F)(F)F)c4)cc3)CC2)C1` [Navi, Navitoclax], the “p16INK4a gene expression (senolysis)” value in assay [1] (one week after treatment, 6 weeks after implantation, p<0.0001) was “significantly decreased”. Besides, the “Il17a (IL17) gene expression” value in assay [1] (treatment 4 weeks after implantation, 5 injections, tissue at 6 weeks, vs isotype or vehicle control) was “decreased”. Moreover, in assay [1] (setting [3]), the “Collagen I gene expression” value is “decreased” and the Tgfβ gene expression entry is listed as “decreased”. In addition, in assay [1] (setting [4]), the Il16 gene expression entry was “decreased”, the S100a4 gene expression entry is “decreased” and the “collagen III gene expression” value is listed as “decreased”. For the same compound, the αSMA immunofluorescence entry in assay [2] is on record as “reduced”.
